Reference: ChEMBL document CHEMBL2311382, “Tryptanthrin derivatives as Toxoplasma gondii inhibitors--structure-activity-relationship of the 6-position” (Bioorg Med Chem Lett, 2013)

Legend:
[1] = Therapeutic index, ratio of TD50 for human foreskin fibroblast cells to ID 50 for Toxoplasma gondii; format: cell-based; conditions: read-out: TI
[2] = Cytotoxicity against human foreskin fibroblast cells by colorimetric method; format: cell-based; conditions: human foreskin fibroblast (HFF) cells, read-out: TD50 (the source's name)
Toxoplasma gondii = experiment: Antimicrobial activity against Toxoplasma gondii assessed as inhibition of growth measured after 5 days by beta-galactosidase assay; format: functional; conditions: 120 h, read-out: ID50 (the source's name)

Compound	selectivity ratio [1]	CC50 [2] [µM]	IC50 (Toxoplasma gondii) [µM]
O=c1c2ccccc2nc2n1-c1ccc(Br)cc1/C2=N/O	590	50	0.085
CC(=O)O/N=C1\c2ccccc2-n2c1nc1ccccc1c2=O	32	35	1.1
O=CO/N=C1\c2ccccc2-n2c1nc1ccccc1c2=O	35	22	0.62
N/N=C1/c2ccccc2-n2c1nc1ccccc1c2=O	16	32	2
N/N=C1/c2cc(Br)ccc2-n2c1nc1ccccc1c2=O	250	79	0.31
CC(=O)N/N=C1/c2ccccc2-n2c1nc1ccccc1c2=O	> 8.3	> 100	12
O=C(N/N=C1/c2ccccc2-n2c1nc1ccccc1c2=O)C(F)(F)F	> 63	> 100	1.6
CC1(O)c2cc(Br)ccc2-n2c1nc1ccccc1c2=O (configuration not stated)	> 14	> 100	7
O=C1c2ccccc2N[C@H]2[C@H](O)c3ccccc3N12	50	12	0.24
O=C1c2ccccc2N[C@H]2[C@H](O)c3cc(Br)ccc3N12	> 50000	> 100	0.002
CC(=O)O[C@@H]1c2ccccc2N2C(=O)c3ccccc3N[C@@H]12	40	40	1
O=Nc1c2ccccc2n2c(O)c3ccccc3nc12	> 130	> 100	0.8
O=C1c2cc(Br)ccc2-n2c1nc1ccccc1c2=O	> 33000	> 100	0.00323
CC1(O)c2ccccc2-n2c1nc1ccccc1c2=O (configuration not stated)	> 11	> 100	8.7
CON=C1c2ccccc2-n2c1nc1ccccc1c2=O (mixture of isomers)	> 77	> 100	1.3
CON=C1c2cc(Br)ccc2-n2c1nc1ccccc1c2=O (single isomer, unassigned)	> 1200	> 100	0.083
CC(=O)CC1(O)c2ccccc2-n2c1nc1ccccc1c2=O (configuration not stated) [PHAITANTHRINS A]	49	11	0.23
COc1cc(Cc2cnc(N)nc2N)cc(OC)c1OC [TRIMETHOPRIM]	> 3	> 100	15
O=C1c2ccccc2-n2c1nc1ccccc1c2=O [TRYPTANTHRIN]	45	6.4	0.14
